Assay results: PubChem BioAssay (NCI)
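A five-concentration, 48-hour dose response in 96-well plates underlies each endpoint, interpolated linearly between surrounding concentrations. At the GI50, growth is halved. TGI is the concentration that stops growth completely.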

Assays:
Test in all cases: NCI tumour cell line growth inhibition, 48 h
RXF 393 renal = tested on: RXF 393 renal
A498 renal = tested on: A498 renal
UACC-62 melanoma = tested on: UACC-62 melanoma
SW-620 colon = tested on: SW-620 colon
MDA-N = tested on: MDA-N
HOP-62 NSCLC = tested on: HOP-62 NSCLC
HCT-15 colon = tested on: HCT-15 colon
SNB-19 CNS = tested on: SNB-19 CNS
HS 578T breast = tested on: HS 578T breast

| SMILES | TGI (RXF 393 renal) | TGI (A498 renal) | TGI (UACC-62 melanoma) | TGI (SW-620 colon) | TGI (MDA-N) | TGI (HOP-62 NSCLC) | TGI (HCT-15 colon) | TGI (SNB-19 CNS) | TGI (HS 578T breast) | GI50 (HS 578T breast) |
| --- | --- | --- | --- | --- | --- | --- | --- | --- | --- | --- |
| CCN(CC(=O)O)CC(=O)O | > 100 µM | > 100 µM | > 100 µM | > 100 µM | > 100 µM | > 100 µM | > 100 µM | > 100 µM | > 100 µM | – |
| CNc1ccc2c(c1)Cc1ccccc1-2 | > 100 µM | 71.1 µM | 89.7 µM | > 100 µM | – | > 100 µM | > 100 µM | > 100 µM | 91.5 µM | – |
| COc1cc(-c2c3c(cc4c2OCO4)[C@@H](Nc2ccc4c(c2)Cc2cc(N[C@@H]5c6cc7c(cc6C(c6cc(OC)c(O)c(OC)c6)[C@H]6C(=O)OC[C@H]56)OCO7)ccc2-4)[C@H]2COC(=O)[C@@H]2C3)cc(OC)c1O (stereo not given in full) | – | 94.2 µM | – | > 100 µM | 34.3 µM | 57.5 µM | > 100 µM | > 100 µM | > 100 µM | – |
| CC1(C)[C@@H]2C[C@H]1c1cnc(-c3ccccn3)cc1[C@H]2C(O)[C@@H]1c2cc(-c3ccccn3)ncc2[C@H]2C[C@@H]1C2(C)C (stereo not given in full) | 1.62 µM | 6.24 µM | 7.66 µM | 47.1 µM | 11 µM | 5.58 µM | 25.2 µM | 15.5 µM | 37.3 µM | – |
| CCOC1NC(=O)c2ccccc21 (stereo not given) | > 100 µM | – | > 100 µM | > 100 µM | > 100 µM | > 100 µM | > 100 µM | > 100 µM | > 100 µM | – |
| CN(C)c1nc(=NCc2ccccn2)ss1 | > 10 µM | > 10 µM | > 10 µM | > 10 µM | > 10 µM | > 10 µM | > 10 µM | > 10 µM | > 10 µM | – |
| FC(F)=C(c1ccc(-c2ccc(Cl)cc2)cc1)C(F)(F)F | 40.9 µM | 31.9 µM | 38.6 µM | 40.3 µM | – | – | 42.2 µM | 36.9 µM | 68.7 µM | – |
| CC1=NC(C)(C)N(O)C1(C)C | > 100 µM | > 100 µM | > 100 µM | > 100 µM | > 100 µM | > 100 µM | > 100 µM | > 100 µM | – | – |
| COc1ccc(N2C(=O)C3c4[nH]c5ccccc5c4C4C(C)CCCC4C3C2=O)cc1 (stereo not given) | > 72.6 µM | > 100 µM | > 100 µM | > 100 µM | 18.3 µM | > 96.2 µM | > 100 µM | > 100 µM | 96 µM | – |
| COc1cc(/C=C/C(=O)O)ccc1OS(=O)(=O)O | > 100 µM | > 100 µM | > 100 µM | > 100 µM | > 100 µM | > 100 µM | > 100 µM | > 100 µM | > 100 µM | – |
| O=c1c(Cc2ccccc2)c(-c2ccccc2)[nH]n1C1=NCCN1 | > 100 µM | > 100 µM | > 100 µM | > 100 µM | > 100 µM | > 100 µM | > 100 µM | > 100 µM | > 100 µM | – |
| COC1OC2COC(C)(C)OC2C2OC(C)(C)OC12 (stereo not given) | > 100 µM | > 100 µM | > 100 µM | > 100 µM | > 100 µM | 61.1 µM | > 100 µM | 54.4 µM | 50 µM | – |
| O=S1(=O)c2ccccc2NC(=S)N1c1ccccc1 | > 100 µM | > 94.5 µM | > 100 µM | > 100 µM | > 80.9 µM | > 100 µM | > 100 µM | > 100 µM | > 100 µM | – |
| CN1c2ccccc2C(=O)NC12CCN(CC1COc3ccccc3O1)CC2 (stereo not given) | > 100 µM | 98.4 µM | > 100 µM | > 100 µM | – | > 100 µM | – | > 100 µM | > 100 µM | – |
| COC(=O)C1=C(C(=O)OC)C2(C)CCC(=O)C1O2 (stereo not given) | > 10 µM | > 10 µM | > 10 µM | > 10 µM | > 10 µM | > 10 µM | > 10 µM | > 10 µM | > 10 µM | – |
| N/C(CSCCSC/C(N)=N/O)=N\O | > 100 µM | – | > 100 µM | > 100 µM | > 100 µM | > 100 µM | > 100 µM | > 100 µM | > 100 µM | – |
| COc1cc2nc(-c3c(F)cccc3F)n(Cc3c(F)cccc3F)c2cc1Cc1c(F)cccc1F | > 28.9 µM | > 100 µM | > 100 µM | > 100 µM | > 100 µM | > 100 µM | > 100 µM | > 100 µM | > 100 µM | – |
| COc1ccc(/C=N/Nc2nc3ccccc3c(=O)n2-c2ccccc2)c(OCc2ccccc2)c1 | > 100 µM | > 100 µM | > 100 µM | > 100 µM | – | > 100 µM | > 100 µM | > 100 µM | > 100 µM | > 100 µM |
| COC(=O)[C@H]1C=C[C@H](OC2OC(COC(C)=O)C(OC(C)=O)C(OC(C)=O)C2OC(C)=O)n2c(=O)n(-c3ccccc3)c(=O)n21 (stereo not given in full) | 3.73 µM | 17.6 µM | 3.01 µM | 5.68 µM | 18.5 µM | 21.1 µM | 3.55 µM | 31.3 µM | 9.59 µM | – |
| CCN(C(=O)N[C@H](C(=O)N[C@@H](C)C(=O)OC)C(C)C)c1ccccc1 | > 100 µM | > 100 µM | 55.7 µM | > 100 µM | > 100 µM | > 100 µM | > 100 µM | > 100 µM | > 100 µM | – |
| OCC1OC(O[C@H]2CN3[C@H](O)[C@@H](O)[C@H](O)[C@H]3C2O)C(O)C(O)C1O (stereo not given in full) | > 100 µM | > 100 µM | > 100 µM | > 100 µM | > 100 µM | > 100 µM | > 100 µM | > 100 µM | > 100 µM | – |
| CCOC(=O)c1[nH]c2nc(SC)nc(NC)c2c1N | > 100 µM | > 100 µM | > 100 µM | > 100 µM | > 100 µM | > 100 µM | > 100 µM | > 100 µM | > 100 µM | – |
| COc1cc2c(cc1O)CC[n+]1cc3c(OC)c(OC)ccc3cc1-2 | – | > 100 µM | > 100 µM | > 100 µM | > 100 µM | – | > 100 µM | > 100 µM | > 100 µM | – |
